Results from patent US20030220524A1, “Sulfur containing compounds” (priority 2000, published 2003).

System: KK leukemic cell line
Experiment: TUNEL, flow cytometry
Format: cell-based, human
Conditions: 48 h
Experimental: (§1) Adherent cell lines were plated at 35×10^4 cells/60 cm^2 dish the day before exposure to compound. Suspension cells were seeded at 25×10^4 cells/mL in a 6 well dish (Falcon) the day of exposure to compound. Mononucleated, T-cell depleted normal bone marrow cells were seeded at 50×10^4 cells/mL in a 6 well dish the day of exposure to compound. Cells were exposed to solvent control or approximate MTT50 and MTT30 concentrations of the compound. After 48 h of exposure to the compound, cells were harvested and fixed with a final concentration of 4% formaldehyde. Fixed cells were stored at −20° C. in 70% ethanol for no more than 5 days. Approximately 10^5 cells were pelleted and labeled with 0.02 mM Biotin-dUTP and 12.5 U TdT enzyme in a 1× reaction buffer (200 mM potassium cacodylate, 25 mM Tris-HCl, 25 μg/mL bovine serum albumin, pH 6.6), 2.5 mM CoCl2 and 0.01 mM dTTP (Roche Molecular Biochemicals, Laval, QC, Canada) for 45 min at 37° C. Samples were washed and incubated in 200 μL of 1:1000 fluorescein isothiocyanate (FITC)-conjugated avidin (Sigma) in 4×SSC, 5% skim milk powder and 0.05% Tween-20 (Sigma). Following 1 h of mixing at room temperature, the samples were washed and resuspended in 500 μL of D-PBS containing 2.5 μg/mL DNase-free RNase (Boehringer Mannheim) and 10 μg/mL PI. Following a 30 min incubation at room temperature, cells were analyzed using a XL-MCL flow cytometer (Coulter Corporation, Miami, Fla.) and a FACScalibar cytometer (Becton Dickinson, San Jose, Calif.). Profiles shown are representative of one experiment.
as §1, with “? s” for “Cells”, “appr ? nate” for “approximate”, “of” for “of the”, “Pl.” for “PI.”

Compound	% TUNEL +ve (dose 50 uM) [%]	% TUNEL +ve (dose 100 uM) [%]	% TUNEL +ve (dose 25 uM) [%]
CSSCC(=O)c1ccccc1 [Compound P, phenacyl methyl disulphide]	47	78	–
CCC(=O)OCSSc1ccccc1 [Compound Q, 1-phenyl-1,2-dithiapropyl propionate]	61	–	43
